Reference: ChEMBL document CHEMBL3091405, “Novel glycosylated endomorphin-2 analog produces potent centrally-mediated antinociception in mice after peripheral administration” (Bioorg Med Chem Lett, 2013)
The source made the active and inactive calls. The rule behind the calls is not given here. Residues, ends and D or L forms follow the SMILES beside them. *: point of attachment. X1 = CC(=O)OC[C@H]1O[C@@H](*)[C@H](OC(C)=O)[C@@H](OC(C)=O)[C@@H]1OC(C)=O; βGlc = OC[C@H]1O[C@@H](*)[C@H](O)[C@@H](O)[C@@H]1O

How the values were obtained:
Mus musculus [1] = test: Antinociceptive activity in mouse assessed as prolongation time to jump at 3 mg/kg, iv by hot plate test; assay type: functional, organism-based; parameters: dose 3 mg/kg
Mu-type opioid receptor [2] = biological target: Mu-type opioid receptor (Cavia porcellus, UniProt P97266); test: Agonist activity at mu opioid receptor in guinea pig ileum; assay type: tissue-based
Mu-type opioid receptor [3] = biological target: Mu-type opioid receptor (Rattus norvegicus, UniProt P33535); test: Displacement of [3H]DAMGO from Wistar rat brain mu opioid receptor by liquid scintillation counting analysis
Mus musculus [4] = test: Antinociceptive activity in mouse assessed as prolongation time to jump at 3 mg/kg, iv by hot plate test in presence of opioid receptor antagonist NALME; assay type: functional, organism-based; parameters: dose 3 mg/kg
Plasma [5] = test: Drug metabolism in mouse plasma assessed as glucuronic metabolite formation at 3 mg/kg, iv after 10 mins by mass spectrometric analysis; assay type: ADME, organism-based; parameters: dose 3 mg/kg, route intravenous; settings: in vivo
Plasma [6] = test: Drug metabolism in mouse plasma assessed as degycosylated metabolite formation at 3 mg/kg, iv after 10 mins by mass spectrometric analysis; assay type: ADME, organism-based; parameters: dose 3 mg/kg, route intravenous; settings: in vivo

Mu-type opioid receptor (Rattus norvegicus, UniProt P33535), sequence (P33535 whole entry): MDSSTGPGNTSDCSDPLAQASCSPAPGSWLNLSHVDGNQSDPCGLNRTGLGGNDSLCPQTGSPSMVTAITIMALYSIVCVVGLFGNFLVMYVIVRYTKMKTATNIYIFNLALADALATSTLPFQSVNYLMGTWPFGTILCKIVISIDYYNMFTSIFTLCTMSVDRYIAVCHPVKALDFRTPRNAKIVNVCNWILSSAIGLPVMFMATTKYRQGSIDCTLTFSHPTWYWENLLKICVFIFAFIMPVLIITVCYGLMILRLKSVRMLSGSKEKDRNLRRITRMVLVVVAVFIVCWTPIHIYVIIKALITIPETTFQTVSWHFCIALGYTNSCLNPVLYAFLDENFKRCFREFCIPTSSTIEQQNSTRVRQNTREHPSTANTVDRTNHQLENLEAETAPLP
Mu-type opioid receptor (Cavia porcellus, UniProt P97266), sequence (P97266 whole entry): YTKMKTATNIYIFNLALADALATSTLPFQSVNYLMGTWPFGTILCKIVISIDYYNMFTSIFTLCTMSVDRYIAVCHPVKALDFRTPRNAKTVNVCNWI

SMILES: NC(=O)[C@H](Cc1ccccc1)NC(=O)[C@H](Cc1ccccc1)NC(=O)[C@@H]1CCCN1C(=O)[C@@H](N)Cc1ccc(O)cc1
- Activity (Mus musculus [1]): inactive

SMILES: CC(=O)OC[C@H]1O[C@@H](Oc2ccc(C[C@H](NC(=O)[C@@H]3CCCN3C(=O)[C@@H](N)Cc3ccc(O)cc3)C(=O)N[C@@H](Cc3ccccc3)C(N)=O)cc2)[C@H](OC(C)=O)[C@@H](OC(C)=O)[C@@H]1OC(C)=O (H-YPY(X1)F-NH2)
- IC50 (Mu-type opioid receptor [2]): > 1000 nM
- IC50 (Mu-type opioid receptor [3]): > 1000 nM

SMILES: NC(=O)[C@H](Cc1ccccc1)NC(=O)[C@H](Cc1ccc(O[C@@H]2O[C@H](CO)[C@@H](O)[C@H](O)[C@H]2O)cc1)NC(=O)[C@@H]1CCCN1C(=O)[C@@H](N)Cc1ccc(O)cc1 (H-YPY(βGlc)F-NH2)
- IC50 (Mu-type opioid receptor [2]): 16.1 nM
- Activity (Mus musculus [4]): Active
- Drug metabolism (Plasma [5]): Active
- Activity (Mus musculus [1]): Active
- IC50 (Mu-type opioid receptor [3]): 73.2 nM
- Drug metabolism (Plasma [6]): Active
